Source: US7122555B2, “Pyrido [2,1-a] isoquinoline derivatives” (Hoffmann-la Roche Inc., priority 2003, dated 2006)

target: human DPP-IV (Homo sapiens, UniProt P27487); experiment: DPP-IV activity assay (fluorogenic or colorimetric substrate), IC50 determination
Sequence (P27487 31-766): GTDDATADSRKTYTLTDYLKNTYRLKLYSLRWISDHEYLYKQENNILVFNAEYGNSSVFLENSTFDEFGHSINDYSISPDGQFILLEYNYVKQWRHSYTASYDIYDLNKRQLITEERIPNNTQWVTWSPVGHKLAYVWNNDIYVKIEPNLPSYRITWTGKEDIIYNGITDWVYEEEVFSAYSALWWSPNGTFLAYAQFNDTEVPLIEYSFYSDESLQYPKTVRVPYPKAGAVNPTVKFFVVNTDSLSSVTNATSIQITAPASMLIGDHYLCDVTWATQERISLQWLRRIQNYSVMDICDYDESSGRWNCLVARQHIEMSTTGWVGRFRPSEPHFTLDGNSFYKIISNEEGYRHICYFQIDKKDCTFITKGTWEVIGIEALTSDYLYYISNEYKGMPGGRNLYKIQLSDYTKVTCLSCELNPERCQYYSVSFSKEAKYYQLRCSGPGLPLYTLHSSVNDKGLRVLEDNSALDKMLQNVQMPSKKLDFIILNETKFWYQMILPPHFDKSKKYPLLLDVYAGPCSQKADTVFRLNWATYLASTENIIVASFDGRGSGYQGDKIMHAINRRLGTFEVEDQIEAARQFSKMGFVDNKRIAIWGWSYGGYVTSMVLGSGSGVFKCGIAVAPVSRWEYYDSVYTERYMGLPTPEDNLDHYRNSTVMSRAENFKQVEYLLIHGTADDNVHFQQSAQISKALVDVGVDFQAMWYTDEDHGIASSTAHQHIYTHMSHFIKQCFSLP
Procedure: Activity of DPP-IV inhibitors are tested with natural human DPP-IV derived from a human plasma pool or with recombinat human DPP-IV. Human citrate plasma from different donors is pooled, filterted through a 0.2 micron membrane under sterile conditions and aliquots of 1 ml are shock frozen and stored at −120° C. until used. In the colorimetric DPP-IV assay 5 to 10 μl human plasma and in the fluorometric assay 1.0 μl of human plasma in a total assay volume of 100 μl is used as an enzyme source. […] In the calorimetric DPP-IV assay 20 ng rec.-h DPP-IV and in the fluorometric assay 2 ng rec-h DPP-IV in a total assay volume of 100 μl is used as an enzyme source.
Initial rate constants are calculated by best fit linear regression.
The absorption of pNA liberated from the colorimetric substrate is detected in a Packard SpectraCount at 405 nm continuosly every 2 minutes for 30 to 120 minutes. Initial rate constants are calculated by best fit linear regression.
DPP-IV activity assays are performed in 96 well plates at 37° C. in a total assay volume of 100 μl. The assay buffer consists of 50 mM Tris/HCl pH 7.8 containing 0.1 mg/ml BSA and 100 mM NaCl. Test compounds are solved in 100% DMSO, diluted to the desired concentration in 10% DMSO/H2O. The final DMSO concentration in the assay is 1% (v/v). At this concentration enzyme inactivation by DMSO is <5%. Compounds are with (10 minutes at 37° C.) and without preincubation with the enzyme. Enzyme reactions are started with substrate application followed by immediate mixing.
Kinetic parameters of the enzyme reaction are calculated at at least 5 different substrate concentrations and at least 5 different test compound concentrations.

In order of falling IC50:
1. COc1cc2c(cc1OC)[C@@H]1C[C@H](N)[C@@H](N3CCCCS3(=O)=O)CN1CC2 [Example 16, (S,S,S)-3-(1,1-Dioxo-[1,2]thiazinan-2-yl)-9,10-dimethoxy-1,3,4,6,7,11b-hexahydro-2H-pyrido[2,1-a]isoquinolin-2-ylamine]  131 nM
2. COc1cc2c(cc1OC)[C@@H]1C[C@H](N)[C@@H](C(=O)N3CCSC3)CN1CC2 (racemic) [Example 2, (RS,RS,RS)-(2-Amino-9,10-dimethoxy-1,3,4,6,7,11b-hexahydro-2H-pyrido[2,1-a]isoquinolin-3-yl)-thiazolidin-3-yl-methanone]  41 nM
3. COc1cc2c(cc1OC)[C@@H]1C[C@H](N)[C@@H](N3CCC=CC3=O)CN1CC2 (racemic) [Example 12, (RS,RS,RS)-1-(2-Amino-9,10-dimethoxy-1,3,4,6,7,11b-hexahydro-2H-pyrido [2,1-a]isoquinolin-3-yl)-5,6-dihydro-1H-pyridin-2-one]  33 nM
